Results as given in ChEMBL document CHEMBL1201862, “PubChem BioAssay data set” (2004).
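How tested: cells in 96-well plates exposed to compound for 48 hours at five concentrations. Abbreviation: GI50, concentration required for 50% inhibition of growth.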 Activity calls are given as the source filed them. Cut-off read from the data, not from the text of the source: active = GI50 up to about 1.1 µM and inactive = higher.

Tests used:
Experiment in all cases: growth of human tumour cells (NCI), 48 h
HOP-92 = test system: HOP-92
BT-549 = test system: BT-549
NCI-H522 = test system: NCI-H522
Malme-3M = test system: Malme-3M
MOLT-4 = test system: MOLT-4
MCF7 = test system: MCF7
SK-OV-3 = test system: SK-OV-3
UACC-62 = test system: UACC-62
HCT-116 = test system: HCT-116
OVCAR-3 = test system: OVCAR-3
HCT-15 = test system: HCT-15
MDA-N = test system: MDA-N
DU-145 = test system: DU-145
SNB-75 = test system: SNB-75
786-0 = test system: 786-0
SF-295 = test system: SF-295
UO-31 = test system: UO-31
OVCAR-5 = test system: OVCAR-5
LOX IMVI = test system: LOX IMVI
HL-60 = test system: HL-60

SMILES	GI50 (HOP-92)	GI50 (BT-549)	GI50 (NCI-H522)	GI50 (Malme-3M)	GI50 (MOLT-4)	GI50 (MCF7)	GI50 (SK-OV-3)	GI50 (UACC-62)	GI50 (HCT-116)	GI50 (OVCAR-3)	GI50 (HCT-15) [µM]	GI50 (MDA-N)	GI50 (DU-145)	GI50 (SNB-75)	GI50 (786-0)	GI50 (SF-295)	GI50 (UO-31)	GI50 (OVCAR-5)	GI50 (LOX IMVI)	GI50 (HL-60)
CCCCNc1nc(SC)nc2[nH]cnc12	> 59 µM (inactive)	> 100 µM (inactive)	> 100 µM (inactive)	> 100 µM (inactive)	> 100 µM (inactive)	> 100 µM (inactive)	5.82 µM (inactive)	> 100 µM (inactive)	> 100 µM (inactive)	> 100 µM (inactive)	> 100	> 100 µM (inactive)	> 100 µM (inactive)	76.7 µM (inactive)	> 100 µM (inactive)	> 100 µM (inactive)	> 100 µM (inactive)	> 100 µM (inactive)	> 100 µM (inactive)	> 100 µM (inactive)
COc1cc(/C=C2\N=C(c3ccccc3)N(c3nc4ccc(Sc5ccccc5)cc4[nH]3)C2=O)ccc1O	62.2 µM (inactive)	20 µM (inactive)	18.8 µM (inactive)	18 µM (inactive)	26.1 µM (inactive)	17.5 µM (inactive)	30.4 µM (inactive)	15.2 µM (inactive)	21.1 µM (inactive)	30.5 µM (inactive)	21.9	5.13 µM (inactive)	35.7 µM (inactive)	33.6 µM (inactive)	21.7 µM (inactive)	27.9 µM (inactive)	28.7 µM (inactive)	26.1 µM (inactive)	25.5 µM (inactive)	11.2 µM (inactive)
CCOC(=O)C(Cc1ccc(N(CCCl)CCCl)cc1)NC(=O)CCCN1C(=O)CN=C(c2ccccc2)c2cc(Cl)ccc21 (stereo not given)	3.77 µM (inactive)	41.9 µM (inactive)	3.03 µM (inactive)	2.35 µM (inactive)	2.44 µM (inactive)	8.53 µM (inactive)	> 76.2 µM (inactive)	2.72 µM (inactive)	21 µM (inactive)	2.22 µM (inactive)	20.6	6.11 µM (inactive)	14.9 µM (inactive)	15.8 µM (inactive)	10.2 µM (inactive)	51.4 µM (inactive)	13.8 µM (inactive)	> 100 µM (inactive)	3.18 µM (inactive)	2.21 µM (inactive)
CCN(CC)CCOC(=O)CCN1CC2CCC(CC2)C1	> 100 µM (inactive)	> 100 µM (inactive)	> 100 µM (inactive)	> 100 µM (inactive)	> 100 µM (inactive)	> 100 µM (inactive)	> 100 µM (inactive)	> 100 µM (inactive)	> 100 µM (inactive)	> 100 µM (inactive)	> 100	> 100 µM (inactive)	> 100 µM (inactive)	78.2 µM (inactive)	> 100 µM (inactive)	> 100 µM (inactive)	> 100 µM (inactive)	> 100 µM (inactive)	> 100 µM (inactive)	> 100 µM (inactive)
CC(CO)(CO)/N=C/c1cc(I)cc(I)c1O	14 µM (inactive)	14 µM (inactive)	19.1 µM (inactive)	13.1 µM (inactive)	11.5 µM (inactive)	19.5 µM (inactive)	13.6 µM (inactive)	16 µM (inactive)	14.8 µM (inactive)	9.79 µM (inactive)	9.33	19.7 µM (inactive)	11.6 µM (inactive)	12.9 µM (inactive)	13.6 µM (inactive)	15.8 µM (inactive)	12 µM (inactive)	22.3 µM (inactive)	10.3 µM (inactive)	11.2 µM (inactive)
